Test results taken from patent US12110293B2, “Substituted triazolo quinoxaline derivatives” (GRÜNENTHAL GMBH, priority 2018, dated 2024).

Target: T1, glucocorticoid receptor (Homo sapiens, UniProt P04150)
T1 construct: expressed in transfected cells
T1 sequence (P04150 524-758 limits assumed): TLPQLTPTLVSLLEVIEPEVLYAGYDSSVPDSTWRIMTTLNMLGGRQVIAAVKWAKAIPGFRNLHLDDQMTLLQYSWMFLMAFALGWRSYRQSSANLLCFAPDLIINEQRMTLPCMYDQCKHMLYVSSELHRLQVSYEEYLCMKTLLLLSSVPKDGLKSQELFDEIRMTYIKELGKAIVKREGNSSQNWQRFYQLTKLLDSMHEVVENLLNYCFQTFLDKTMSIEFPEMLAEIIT
Experiment: Agonistic mode of action on the glucocorticoid receptor (CHO-Gal4/GR luciferase reporter cell line)
Format: cell-based
Details: range class observed in the agonistic assay or the antagonistic assay (CHO-Gal4/GR reporter cells); table does not say which mode applies per example
Procedure, shortened: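 CHO cells stably carrying GAL4 DBD–GR ligand-binding-domain fusion and GAL4-UAS firefly luciferase reporter, 5000 cells/well grown 24 h, then compounds added in Opti-MEM at 8 half-log concentrations from 10 μM to 0.003 μM (0.5% DMSO), quadruplicates. Agonist-induced luminescence read on FLIPR Tetra; EC50 calculated.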

SMILES: Cc1nnc2n1-c1c(cc(F)c(-c3cc(F)cc4c3ccn4C)c1C(F)(F)F)NC2(C)C [Example 532, 7-Fluoro-8-(6-fluoro-1-methyl-1H-indol-4-yl)-1,4,4-trimethyl-9-(trifluoromethyl)-5H-[1,2,4] triazolo[4,3-a]quinoxaline]
- IC50 or EC50 (agonist or antagonist mode not specified): < 100 nM

SMILES: Cc1c(-c2cc(F)cc3c2cnn3S(C)(=O)=O)c(F)cc2c1-n1c(C)nnc1C(C)(C)N2 [Example 279, 7-Fluoro-8-(6-fluoro-1-methylsulfonyl-1H-indazol-4-yl)-1,4,4,9-tetramethyl-5H-[1,2,4]triazolo[4,3-a]quinoxaline]
- IC50 or EC50 (agonist or antagonist mode not specified): < 100 nM

SMILES: Cc1nnc2n1-c1c(cc(F)c(-c3cc(F)cc4c3cnn4S(C)(=O)=O)c1C(F)F)NC2(C)C [Example 346, 9-(Difluoro-methyl)-7-fluoro-8-(6-fluoro-1-methylsulfonyl-1H-indazol-4-yl)-1,4,4-trimethyl-5H-[1,2,4]triazolo[4,3-a]quinoxaline]
- IC50 or EC50 (agonist or antagonist mode not specified): 100 to 1000 nM

SMILES: Cc1cc2c(c(C)c1-c1cc(F)cc3c(C)c[nH]c13)-n1c(C)nnc1C(C)(C)N2 [Example 341, 8-(5-Fluoro-3-methyl-1H-indol-7-yl)-1,4,4,7,9-pentamethyl-5H-[1,2,4]triazolo[4,3-a]quinoxaline]
- IC50 or EC50 (agonist or antagonist mode not specified): 100 to 1000 nM

SMILES: Cc1nnc2n1-c1c(cc(F)c(-c3ccc(C#N)c4[nH]ccc34)c1C(F)(F)F)NC2(C)C [Example 531, 4-[7-Fluoro-1,4,4-trimethyl-9-(trifluoromethyl)-5H-[1,2,4]triazolo[4,3-a]quinoxalin-8-yl]-1H-indole-7-carbonitrile]
- IC50 or EC50 (agonist or antagonist mode not specified): 100 to 1000 nM

SMILES: Cc1nnc2n1-c1c(cc(F)c(-c3cc(C(F)(F)F)cc4[nH]ccc34)c1F)NC2(C)C [Example 207, 7,9-Difluoro-1,4,4-trimethyl-8-[6-(trifluoromethyl)-1H-indol-4-yl]-5H-[1,2,4]triazolo[4,3-a]quinoxaline]
- IC50 or EC50 (agonist or antagonist mode not specified): 100 to 1000 nM

SMILES: Cc1cc2c(c(C)c1-c1cc(F)cc3c1cnn3S(C)(=O)=O)-n1c(C)nnc1C(C)(C)N2 [Example 373, 8-(6-Fluoro-1-methylsulfonyl-1H-indazol-4-yl)-1,4,4,7,9-pentamethyl-5H-[1,2,4]triazolo[4,3-a]quinoxaline]
- IC50 or EC50 (agonist or antagonist mode not specified): 100 to 1000 nM

SMILES: COCCn1c(C(F)(F)F)cc2c(-c3c(OC(F)F)cc4c(c3F)-n3c(C)nnc3C(C)(C)N4)cccc21 [Example 259, 7-(Difluoro-methoxy)-9-fluoro-8-[1-(2-methoxy-ethyl)-2-(trifluoromethyl)-1H-indol-4-yl]-1,4,4-trimethyl-5H-[1,2,4]triazolo[4,3-a]quinoxaline]
- IC50 or EC50 (agonist or antagonist mode not specified): 1000 to 15000 nM

SMILES: CCc1nnc2n1-c1c(cc(F)c(-c3cccc4c3ccn4CCOC)c1C)NC2(C)C [Example 299, 1-Ethyl-7-fluoro-8-[1-(2-methoxy-ethyl)-1H-indol-4-yl]-4,4,9-trimethyl-5H-[1,2,4]triazolo[4,3-a]quinoxaline]
- IC50 or EC50 (agonist or antagonist mode not specified): 1000 to 15000 nM

SMILES: Cc1c(-c2cccc3c(C)n[nH]c23)c(F)cc2c1-n1c(C)nnc1C(C)(C)N2 [Example 361, 7-Fluoro-1,4,4,9-tetramethyl-8-(3-methyl-1H-indazol-7-yl)-5H-[1,2,4]triazolo[4,3-a]quinoxaline]
- IC50 or EC50 (agonist or antagonist mode not specified): 1000 to 15000 nM

SMILES: CCc1nnc2n1-c1c(cc(F)c(-c3cccc4c3ccn4S(C)(=O)=O)c1C)NC2(C)C [Example 247, 1-Ethyl-7-fluoro-4,4,9-trimethyl-8-(1-methylsulfonyl-1H-indol-4-yl)-5H-[1,2,4]triazolo[4,3-a]quinoxaline]
- IC50 or EC50 (agonist or antagonist mode not specified): 1000 to 15000 nM

SMILES: Cc1nnc2n1-c1c(cc(OC(F)F)c(-c3cccc4c3cnn4C)c1F)NC2(C)C [Example 273, 7-(Difluoro-methoxy)-9-fluoro-1,4,4-trimethyl-8-(1-methyl-1H-indazol-4-yl)-5H-[1,2,4]triazolo[4,3-a]quinoxaline]
- IC50 or EC50 (agonist or antagonist mode not specified): 1000 to 15000 nM

SMILES: CC#Cc1c[nH]c2c(-c3c(F)cc4c(c3C)-n3c(COC)nnc3C(C)(C)N4)cc(F)cc12 [Example 76, 7-fluoro-8-(5-fluoro-3-(prop-1-yn-1-yl)-1H-indol-7-yl)-1-(methoxymethyl)-4,4,9-trimethyl-4,5-dihydro-[1,2,4]triazolo[4,3-a]quinoxaline]
- IC50 or EC50 (agonist or antagonist mode not specified): < 100 nM

SMILES: Cc1c[nH]c2c(-c3c(Cl)cc4c(c3F)-n3c(C)nnc3C(C)(C)N4)cc(F)cc12 [Example 290, 7-Chloro-9-fluoro-8-(5-fluoro-3-methyl-1H-indol-7-yl)-1,4,4-trimethyl-5H-[1,2,4]triazolo[4,3-a]quinoxaline]
- IC50 or EC50 (agonist or antagonist mode not specified): 100 to 1000 nM

SMILES: Cc1nnc2n1-c1c(cc(F)c(-c3cccc4c3ccn4S(=O)(=O)C(C)C)c1F)NC2(C)C [Example 200, 7,9-Difluoro-8-[1-(isopropylsulfonyl)-1H-indol-4-yl]-1,4,4-trimethyl-5H-[1,2,4]triazolo[4,3-a]quinoxaline]
- IC50 or EC50 (agonist or antagonist mode not specified): 1000 to 15000 nM

SMILES: Cc1cc2c(c(F)c1-c1cc(F)cc3c1ccn3S(C)(=O)=O)-n1c(C)nnc1C(C)(C)N2 [Example 332, 9-Fluoro-8-(6-fluoro-1-methylsulfonyl-1H-indol-4-yl)-1,4,4,7-tetramethyl-5H-[1,2,4] triazolo[4,3-a]quinoxaline]
- IC50 or EC50 (agonist or antagonist mode not specified): 1000 to 15000 nM

SMILES: COc1cc2c(c(C(F)(F)F)c1-c1cc(F)cc3c1ccn3C)-n1c(C)nnc1C(C)(C)N2 [Example 517, 8-(6-Fluoro-1-methyl-1H-indol-4-yl)-7-methoxy-1,4,4-trimethyl-9-(trifluoromethyl)-5H-[1,2,4]triazolo [4,3-a]quinoxaline]
- IC50 or EC50 (agonist or antagonist mode not specified): 100 to 1000 nM

SMILES: Cc1c(-c2cccc3c2ccn3CC(F)F)c(F)cc2c1-n1c(C)nnc1C(C)(C)N2 [Example 330, 8-[1-(2,2-Difluoro-ethyl)-1H-indol-4-yl]-7-fluoro-1,4,4,9-tetramethyl-5H-[1,2,4]triazolo[4,3-a]quinoxaline]
- IC50 or EC50 (agonist or antagonist mode not specified): < 100 nM

SMILES: COc1c(-c2cccc3c2cnn3S(C)(=O)=O)c(F)cc2c1-n1c(C)nnc1C(C)(C)N2 [Example 342, 7-Fluoro-9-methoxy-1,4,4-trimethyl-8-(1-methylsulfonyl-1H-indazol-4-yl)-5H-[1,2,4]triazolo[4,3-a] quinoxaline]
- IC50 or EC50 (agonist or antagonist mode not specified): 1000 to 15000 nM

SMILES: Cc1nnc2n1-c1c(cc(F)c(-c3cc(F)cc4cc[nH]c34)c1C(F)(F)F)NC2(C)C [Example 516, 7-Fluoro-8-(5-fluoro-1H-indol-7-yl)-1,4,4-trimethyl-9-(trifluoro-methyl)-5H-[1,2,4]triazolo[4,3-a] quinoxaline]
- IC50 or EC50 (agonist or antagonist mode not specified): 100 to 1000 nM

SMILES: Cc1nnc2n1-c1c(cc(F)c(-c3cc(F)cc4[nH]ccc34)c1C(F)F)NC2(C)C [Example 466, 9-(Difluoro-methyl)-7-fluoro-8-(6-fluoro-1H-indol-4-yl)-1,4,4-trimethyl-5H-[1,2,4]triazolo [4,3-a]quinoxaline]
- IC50 or EC50 (agonist or antagonist mode not specified): < 100 nM

SMILES: Cc1nnc2n1-c1c(cc(OC(F)F)c(-c3cccc4c3ccn4S(C)(=O)=O)c1F)NC2(C)C [Example 275, 7-(Difluoro-methoxy)-9-fluoro-1,4,4-trimethyl-8-(1-methylsulfonyl-1H-indol-4-yl)-5H-[1,2,4]triazolo[4,3-a]quinoxaline]
- IC50 or EC50 (agonist or antagonist mode not specified): 1000 to 15000 nM

SMILES: Cc1c(-c2cc(F)cc3c(C)c[nH]c23)c(OC(F)(F)F)cc2c1-n1c(C)nnc1C(C)(C)N2 [Example 458, 8-(5-Fluoro-3-methyl-1H-indol-7-yl)-1,4,4,9-tetramethyl-7-(trifluoromethyloxy)-5H-[1,2,4]triazolo[4,3-a]quinoxaline]
- IC50 or EC50 (agonist or antagonist mode not specified): 100 to 1000 nM

SMILES: COCCn1ncc2c(-c3c(OC(F)(F)F)cc4c(c3C)-n3c(C)nnc3C(C)(C)N4)cc(F)cc21 [Example 480, 8-[6-Fluoro-1-(2-methoxy-ethyl)-1H-indazol-4-yl]-1,4,4,9-tetramethyl-7-(trifluoromethyloxy)-5H-[1,2,4]triazolo[4,3-a]quinoxaline]
- IC50 or EC50 (agonist or antagonist mode not specified): 100 to 1000 nM

SMILES: Cc1c[nH]c2c(-c3c(Cl)cc4c(c3F)-n3c(C)nnc3C(C)(C)N4)cccc12 [Example 272, 7-Chloro-9-fluoro-1,4,4-trimethyl-8-(3-methyl-1H-indol-7-yl)-5H-[1,2,4]triazolo[4,3-a]quinoxaline]
- IC50 or EC50 (agonist or antagonist mode not specified): 100 to 1000 nM

SMILES: Cc1nnc2n1-c1c(cc(C(F)F)c(-c3cc(F)cc4c3ccn4CCO)c1F)NC2(C)C [Example 385, 2-[4-[7-(Difluoro-methyl)-9-fluoro-1,4,4-trimethyl-5H-[1,2,4]triazolo [4,3-a]quinoxalin-8-yl]-6-fluoro-1H-indol-1-yl]-ethanol]
- IC50 or EC50 (agonist or antagonist mode not specified): 1000 to 15000 nM

SMILES: Cc1nnc2n1-c1c(cc(F)c(-c3cccc4c(C(F)(F)F)c[nH]c34)c1F)NC2(C)C [Example 10, 7,9-difluoro-1,4,4-trimethyl-8-(3-(trifluoromethyl)-1H-indol-7-yl)-4,5-dihydro-[1,2,4]triazolo[4,3-a]quinoxaline]
- IC50 or EC50 (agonist or antagonist mode not specified): 100 to 1000 nM

SMILES: COCCn1ccc2c(-c3c(OC)cc4c(c3C(F)(F)F)-n3c(C)nnc3C(C)(C)N4)cccc21 [Example 334, 7-Methoxy-8-[1-(2-methoxy-ethyl)-1H-indol-4-yl]-1,4,4-trimethyl-9-(trifluoromethyl)-5H-[1,2,4]triazolo[4,3-a]quinoxaline]
- IC50 or EC50 (agonist or antagonist mode not specified): 1000 to 15000 nM

SMILES: Cc1c(-c2cccc3c(C#CC(C)(C)O)c[nH]c23)c(F)cc2c1-n1c(C)nnc1C(C)(C)N2 [Example 39]
- IC50 or EC50 (agonist or antagonist mode not specified): 100 to 1000 nM
